According to a melting point compilation (Tetko et al.; mined from patent text by program, amines drawn as free bases though some values may be those of a salt):

| melting point | SMILES |
| --- | --- |
| 70 to 72 °C | Cc1ccc(S(=O)(=O)NCCO)c(C)c1 |
| 155 to 156 °C | COc1cccc(COCCCn2ccnc2)c1NC(=O)CC1c2ccccc2Oc2ccccc21 |
| 148 to 149 °C | Cc1nnc(-c2ccc3occ(-c4ccc(C(C)O)cc4)c3c2)o1 (stereo not given) |
| 76 to 77 °C | CS(=O)(=O)c1ccc(-c2cc(=O)n(CC3CCCC3)nc2-c2ccc(F)cc2)cc1 |
| 204 to 208 °C | Cc1cccc2c1ncn2Cc1oc2ccccc2c(=O)c1-c1ccccc1 |
| 178 to 180 °C | Cc1cnc(N)c2nc(C)n(CC(C)C)c12 |
| 173 to 174 °C | O=C(O)c1cccc(-c2ccc3c(c2)C(Oc2ccc(Cl)cc2Cl)CC3)c1 (stereo not given) |
| 300 °C | CCOc1cc(-c2cc(C(F)(F)F)n3ncc(C(=O)Nc4nc(C)c(S(N)(=O)=O)s4)c3n2)ccc1C(F)(F)F |
| 78 to 79 °C | C=C(C1=C(CCC(=O)OC)C(=O)CC1OC(C)=O)c1ccccc1 (stereo not given) |
| 72 °C | COCc1ccc(Cn2cc(-c3ccc(OC)cc3)ccc2=O)cc1 |
| 97 to 99 °C | Cc1cc(C)c2c(n1)CC(c1ccccc1)CC2=O (stereo not given) |
| 142 to 145 °C | Cc1c(-c2ccccc2)oc2c(CS(=O)CCCl)cccc2c1=O (stereo not given) |
| 187 to 188 °C | CC1=C(C(=O)OC(C)(C)C)C(c2cccc([N+](=O)[O-])c2)N(C(=O)N(C)C)C(=O)N1 (stereo not given) |
| 309 to 314 °C | O=c1[nH]c2cc(Cl)ccc2c(=O)cc1NCc1ccccc1 |
| 68 to 75 °C | COC(=O)C(C)(C)COc1ccc(CNC(=O)C2Cc3ccccc3N2S(=O)(=O)c2ccc(-c3ccccc3C(F)(F)F)cc2)cc1 (stereo not given) |
| 244 °C | CC(C)n1nc(-c2cnc(N)nc2-c2c(F)cccc2F)ccc1=O |
| 81 to 83 °C | O=C1C[C@@H]2[C@@H](/C=C/[C@H](O)CCc3ccccc3)[C@H](OC(=O)c3ccc(-c4ccccc4)cc3)C[C@@H]2O1 |
| 86.5 to 88.2 °C | C=C(C)c1nn(-c2c(Cl)cc(C(F)(F)F)cc2Cl)cc1C1CC1(Br)Br (stereo not given) |
| 122 to 123 °C | CNC(=NCCSCc1ncccc1OC)NC#N |
| 5 °C | CCCN(c1ccncc1F)n1c(C)cc2ccccc21 |
| 200 to 202 °C | O=c1c(CO)coc2cc(OCCCN3CCC(c4noc5cc(F)ccc45)CC3)ccc12 |
| 104 to 110 °C | CCCc1c(OCCCc2ccc(OC)c(OC)c2)ccc(C(=O)O)c1O |
| 232 to 233 °C | Cc1[nH]c(=O)[nH]c1C(=O)CC(C)C |
| 86 to 88 °C | CCCCCCCC[C@H](N[C@@H](C)C(=O)N1C(=O)N(Cc2ccccc2)C[C@H]1C(=O)O)C(=O)OCC |

| melting point | SMILES |
| --- | --- |
| 287 to 289 °C | O=C1Cn2c(c(Cl)c3ccccc32)-c2ccccc2N1 |
| 81 to 82 °C | COC(=O)C(C)c1ccc2c(c1)CC(=O)c1ccccc1S2 (stereo not given) |
| 93.9 °C | Cc1ccc(C=CC#N)cc1C |
| 170 °C | Oc1ccc(Cl)cc1C(O)(c1ccccc1)C1CCCCC1 (stereo not given) |
| 131 °C | N#CC(c1ccccc1)c1ccc(Cl)nn1 (stereo not given) |
| 103 to 104 °C | CS(=O)(=O)c1ccc(C2=C(Br)CCC2)cc1 |
| > 200 °C | NC(=O)c1ccc(-c2cnc3c(c2)N(Cc2ccccc2)C(=O)CN3)cc1 |
| 217 to 220 °C | O=C(N1CCCC1)N1Cc2c(C3=NCCO3)ncn2-c2ccccc21 |
| 115 to 116 °C | COC(=O)c1sc2ccc(CCl)cc2c1C |
| 93 to 95 °C | COC(=O)c1c(SC(C)C)c2cc(OC)ccc2n1C |
| 198 to 199 °C | CC[C@H](C)[C@H](NC(=O)OCc1ccccc1)C(=O)N[C@@H](CO)Cc1c[nH]c2ccccc12 |
| 158 to 160 °C | COc1ccc(N2CCCn3c2nc2c(Cl)ccc(C(OCC(F)(F)F)C4CC4)c23)c(C)n1 (stereo not given) |
| 240 °C | Nc1cc(C(F)(F)F)ccc1C=C1NC(=S)NC1=O |
| 212 to 214 °C | CCOCc1nc2c(N)nc3cc(-c4cncc(CO)c4)cnc3c2n1CC(C)(C)O |
| 191 to 193 °C | Cc1ccccc1N1CCN(CCn2c(=O)[nH]c3sccc3c2=O)CC1 |
| 245 °C | Cc1cc(-c2cc(C(F)(F)F)n3ncc(-c4nc(-c5ccnc(N)c5)no4)c3n2)ccc1C(F)(F)F |
| 158 to 159 °C | Cc1oc(-c2ccccc2)nc1COc1cccc(COc2cncc(CC(=O)O)c2)c1 |
| 88 °C | COC(C)(OC)c1ccc(C2(O)CCC(C)(C)CC2)cc1 |
| 184 to 186 °C | CC1=C(c2ccncc2)C(C)CC(=O)N1 (stereo not given) |
| 139 to 140 °C | COC(=O)c1cc(-c2nc(COc3ccc(CCl)cc3OC)c(C)o2)ccc1C |
| 278 to 280 °C | CCNC(=O)c1cc(C(=O)O)cc(C(=O)NCC)n1 |
| 167 to 169 °C | O=C1c2cccc3cc(OS(=O)(=O)C(F)(F)F)cc(c23)C(=O)N1O |
| 210 to 212 °C | O=c1ccccn1[C@@H]1c2cc(C(F)(F)F)ccc2OC(CF)(CF)[C@H]1O (relative stereo) |
| 280 to 282 °C | Cn1nnnc1-c1cnc2ccccn2c1=O |

| melting point | SMILES |
| --- | --- |
| 156 to 158 °C | CCC(OC(C)=O)C(=O)Nc1ccc(I)cc1Cl (stereo not given) |
| 148 to 150 °C | CCCCNC(=O)[C@@H]1C[C@]2(NC(=O)N(CCCCl)C2=O)c2cc(F)ccc2O1 |
| 302 to 303 °C | Cc1cccc(C)c1-n1c(C)c(C#N)c(=O)[nH]c1=O |
| 265 to 268 °C | Cc1cc2c(-c3ccccc3)c(C(=O)O)oc(=O)c2cc1C |
| 134 °C | O=C(NC1CC1)c1ccc(F)c2c1CC(N(CCCc1c[nH]c3ccc(F)cc13)C1CCC1)CO2 (stereo not given) |
| 139 to 144 °C | C[C@@H]1S[C@@H](C(=O)Nc2ccc(CC3SC(=O)NC3=O)cc2)Cc2cc3c(cc2C1=O)OCO3 (stereo not given in full) |
| 221 to 225 °C | Cc1c(-n2ccnc2)n(Cc2ccc(C(=O)O)cc2)c2ccccc12 |
| 97 to 98 °C | COc1nc2ccccc2cc1NC(=O)N1CCN(c2cccc(Cl)c2)CC1 |
| 55 °C | CCNc1nc(NCc2ccc(NC(=O)C3CCN(Cc4ccccc4)CC3)cc2)c2ccc(C)cc2n1 |
| 146 to 147 °C | Cn1cc(-c2ccc(F)cc2)c(C(=O)O)n1 |
| 166 to 167 °C | CC(C)c1nn(-c2ccc(C(F)(F)F)cn2)cc1CCCOc1cc(CCC(=O)O)n(C2CCCCC2)n1 |
| 134 to 135 °C | FC(F)(F)c1ccc(-c2cc3[nH]ccn3n2)cc1 |
| 81 °C | COc1ccc(CN2C(=O)C(C)(c3cc(COCCN4CCOCC4)ccc3Cl)c3cc(Cl)ccc32)c(OC)c1 (stereo not given) |
| 44 to 45 °C | CCOC(=O)C(Oc1ccc(-c2ccc(Cl)cc2)cc1)(C(F)(F)F)C(F)(F)F |
| 47 to 48 °C | CNC(=O)[C@@H]1C=CCN1C(=O)OC(C)(C)C |
| 186 to 188 °C | CCOC(=O)Cn1c(C(=O)OCC)cc(=O)c2cc(O)c(=O)ccc21 |
| 170 °C | c1ccc(CCC2CCN(Cc3nc4ccccc4[nH]3)CC2)cc1 |
| 237 to 238 °C | O=C(O)COc1cc2c(=O)c3ccccc3oc2cc1Cl |
| 172 to 173 °C | CCN1c2ncc(CCc3ccc(C(=O)OC)cc3)cc2C(=O)N(C)c2cccnc21 |
| 98 to 99 °C | COCOc1cc(COc2nn(Cc3ccccc3)cc2CO)ccc1OCc1nc(-c2ccco2)oc1C |
| 143 to 145 °C | CCN1C=C(C(=O)O)C(=O)CC1c1cccc(Cl)c1 (stereo not given) |
| 245 °C | Oc1nc2cccccc-2n1 |
| 207 to 208 °C | C[Si](C)(C)C#Cc1ccc(C=Cc2ccc(C#C[Si](C)(C)C)cc2)cc1 |
| > 200 °C | N#Cc1cc(-c2ccc(Cl)c(Cl)c2)[nH]c1Br |

| melting point | SMILES |
| --- | --- |
| 119 to 120 °C | CS(=O)(=O)c1ccc(-c2cc(CO[N+](=O)[O-])nn2C2CCCCCC2)cc1 |
| 100 to 102 °C | O=C(c1ccccc1)c1cccc2c1CCC2C(=O)O (stereo not given) |
| 177 °C | COc1ccc(NN=C2CCCCC2=O)cc1 |
| 60 to 61 °C | CCN(CCO[N+](=O)[O-])C(=O)COC(=O)[C@@H](C)c1ccc2cc(OC)ccc2c1 |
| 216 to 218 °C | Cc1ccc(C2=NNC(=O)CC2)cc1O |
| 113 to 117 °C | CC1(C)CC(N2CCCCCC2=O)CC(C)(C)N1 |
| 226 to 228 °C | Nc1ccc(-c2nc3cc(N)ccc3o2)cc1 |
| 114 to 115 °C | CC(F)c1ncnc(NCc2ccc(C(C)(C)C)cc2)c1I (stereo not given) |
| 97 to 98 °C | CC(O)CN1C(C)(C)CC(O)CC1(C)C (stereo not given) |
| 178 to 180 °C | O=C(CC(=O)c1ccccc1)C(=O)CC(=O)c1ccccc1 |
| 135 to 137 °C | COc1ccc(-c2nnc(OC)nc2-c2ccc(OC)cc2)cc1 |
| 152 to 154 °C | CC(O)(C(=O)Nc1ccc(S(=O)(=O)F)cc1)C(F)(F)F (stereo not given) |
| 122 to 123 °C | CCCC[C@H]1COC(c2ccc(OCCCCCCCc3cc(C)no3)cc2)=N1 |
| 95 °C | C=C(CO)C[C@](C)(O)[C@H]1CC[C@H]2[C@@H](O[Si](C)(C)C(C)(C)C)CCC[C@@]21C |
| 269 to 270 °C | Cc1cc(C#N)ccc1-c1ccc(-c2nc3cc(C#N)ccc3[nH]2)cc1 |
| 231 to 234 °C | CONC(=O)c1cc(C)c(C(c2cc(F)ccc2F)S(=O)(=O)c2ccc(F)cc2)cn1 (stereo not given) |
| 166 to 167 °C | N#CC(Sc1nc2ccccc2[nH]1)c1ccccn1 (stereo not given) |
| 85 to 88 °C | CC1(O)CC2c3ccccc3CCN2C2CCCCC21 (stereo not given) |
| 98 to 101 °C | CCOC(=O)c1cnn(-c2ncc(Cl)cc2Cl)c1N |
| 105 to 108 °C | CC1(C)CCC(C)(C)c2cc(-c3cc(-c4ccc(C(=O)NO)cc4)ccc3-c3ccccc3)ccc21 |
| 184 °C | COC(=O)c1nn(Cc2cccc(OC)c2)c2c1CCc1cc(OCc3cncnc3)ccc1-2 |
| 173 to 174 °C | CNc1cc(CC(C#N)=CNc2ccccc2)cc(N(C)C)c1Cl |
| 62 to 65 °C | Cc1nc(C(C)(C)C)c(O)c(C(C)(C)C)n1 |

| SMILES | melting point |
| --- | --- |
| Cn1cnc2cc(C(=O)NC3CC3)c(NC(=O)c3cc(C(F)(F)F)nn3-c3ncccc3Cl)c(Cl)c21 | 148 to 151 °C |
| COc1cccc(NC(=O)NC2N=C(c3ccccc3)c3ccccc3N(CCN(C)C)C2=O)c1 (stereo not given) | 213 to 215 °C |
| COc1cc2c(cc1OC)N(C)C(=O)CN=C2c1cccnc1 | 177 to 179 °C |
| CN1Cc2c(C=O)ncn2-c2ccccc2C1=O | 202 to 203 °C |
| CC1CC2(C)C(CCC3C2CCC2(C)C(OCc4ccccc4)CCC32)CC1=O (stereo not given) | 116 to 120 °C |
